The first experiment concerns the target LRRK2 G2019S enzyme (Homo sapiens (Human), UniProt Q5S007, G2019S). As to the kind of experiment: LRRK2 G2019S TR-FRET biochemical kinase assay (LRRKtide substrate). The note with it: Table A-2; 5 nM LRRK2, 134 μM ATP, 60 minute reaction, 23° C. The procedure: LRRK2 G2019S enzyme, Substrate (LRRKtide), ATP, TR-FRET dilution buffer, pLRRKtide antibody, 384-well assay plate, and DMSO.
50 mM Tris pH 7.5, 10 mM MgCl2, 1 mM EGTA, 0.01% Brij-35, 2 mM DTT, 5 nM LRRK2, 134 μM ATP, 60 minute reaction time, 23° C. reaction temperature, and 10 μL total reaction volume.
1×TR-FRET dilution buffer, 10 mM EDTA, 2 nM antibody, 23° C. reaction temperature, and 10 μL total reaction volume.
Compound solutions were prepared by initially diluting to 1 mM with DMSO. 35 μL of reference compound solution, 35 μL of test compound solution, and 35 μL HPE were successively added to the source plate (384-well assay plate, Labcyte). The plates were centrifuged at 2500 rpm for 1 minute and sealed in foil. POD was used to perform a 3.162 fold serial dilution and 100 nL of reference compound solution, test compound solution, HPE and ZPE were transferred to assay plates. The assay plate was centrifuged at 2500 rpm for 1 minute, and sealed with foil.
To perform the enzyme reaction, 5 μL of LRRKtide substrate and kinase mixture in assay buffer was added to all wells of the assay plate. The plate was centrifuged to concentrate the mixture at the bottom of the wells. The assay plate was incubated at 23° C. for 20 minutes. Following incubation, 5 μL of 2×ATP in assay buffer was added to each well, and plates were centrifuged to concentrate the mixture at the bottom of the wells. The plate was incubated at 23° C. for 60 minutes.
To perform the detection of the reaction, EDTA completely mixed in TR-FRET dilution buffer was added to antibody reagent. 10 μL of detection reagent was added to all wells of each well of the assay-plate and the plate was centrifuged to concentrate the mixture at the bottom of the wells. The plate was then incubated at 23° C. for 60 minutes. Plates were read on Perkin Elmer Envision 2104 instrument in TR-FRET mode using a 340 nm excitation filter, 520 nm fluorescence emission filter, and 490 or 495 nm terbium emission filter.
B-2, C2, and D-4 respectively.
For orientation: In TR-FRET formats the signal depends on donor and acceptor labels being close together.
Chain of LRRK2 G2019S enzyme (Q5S007 whole entry G2019S): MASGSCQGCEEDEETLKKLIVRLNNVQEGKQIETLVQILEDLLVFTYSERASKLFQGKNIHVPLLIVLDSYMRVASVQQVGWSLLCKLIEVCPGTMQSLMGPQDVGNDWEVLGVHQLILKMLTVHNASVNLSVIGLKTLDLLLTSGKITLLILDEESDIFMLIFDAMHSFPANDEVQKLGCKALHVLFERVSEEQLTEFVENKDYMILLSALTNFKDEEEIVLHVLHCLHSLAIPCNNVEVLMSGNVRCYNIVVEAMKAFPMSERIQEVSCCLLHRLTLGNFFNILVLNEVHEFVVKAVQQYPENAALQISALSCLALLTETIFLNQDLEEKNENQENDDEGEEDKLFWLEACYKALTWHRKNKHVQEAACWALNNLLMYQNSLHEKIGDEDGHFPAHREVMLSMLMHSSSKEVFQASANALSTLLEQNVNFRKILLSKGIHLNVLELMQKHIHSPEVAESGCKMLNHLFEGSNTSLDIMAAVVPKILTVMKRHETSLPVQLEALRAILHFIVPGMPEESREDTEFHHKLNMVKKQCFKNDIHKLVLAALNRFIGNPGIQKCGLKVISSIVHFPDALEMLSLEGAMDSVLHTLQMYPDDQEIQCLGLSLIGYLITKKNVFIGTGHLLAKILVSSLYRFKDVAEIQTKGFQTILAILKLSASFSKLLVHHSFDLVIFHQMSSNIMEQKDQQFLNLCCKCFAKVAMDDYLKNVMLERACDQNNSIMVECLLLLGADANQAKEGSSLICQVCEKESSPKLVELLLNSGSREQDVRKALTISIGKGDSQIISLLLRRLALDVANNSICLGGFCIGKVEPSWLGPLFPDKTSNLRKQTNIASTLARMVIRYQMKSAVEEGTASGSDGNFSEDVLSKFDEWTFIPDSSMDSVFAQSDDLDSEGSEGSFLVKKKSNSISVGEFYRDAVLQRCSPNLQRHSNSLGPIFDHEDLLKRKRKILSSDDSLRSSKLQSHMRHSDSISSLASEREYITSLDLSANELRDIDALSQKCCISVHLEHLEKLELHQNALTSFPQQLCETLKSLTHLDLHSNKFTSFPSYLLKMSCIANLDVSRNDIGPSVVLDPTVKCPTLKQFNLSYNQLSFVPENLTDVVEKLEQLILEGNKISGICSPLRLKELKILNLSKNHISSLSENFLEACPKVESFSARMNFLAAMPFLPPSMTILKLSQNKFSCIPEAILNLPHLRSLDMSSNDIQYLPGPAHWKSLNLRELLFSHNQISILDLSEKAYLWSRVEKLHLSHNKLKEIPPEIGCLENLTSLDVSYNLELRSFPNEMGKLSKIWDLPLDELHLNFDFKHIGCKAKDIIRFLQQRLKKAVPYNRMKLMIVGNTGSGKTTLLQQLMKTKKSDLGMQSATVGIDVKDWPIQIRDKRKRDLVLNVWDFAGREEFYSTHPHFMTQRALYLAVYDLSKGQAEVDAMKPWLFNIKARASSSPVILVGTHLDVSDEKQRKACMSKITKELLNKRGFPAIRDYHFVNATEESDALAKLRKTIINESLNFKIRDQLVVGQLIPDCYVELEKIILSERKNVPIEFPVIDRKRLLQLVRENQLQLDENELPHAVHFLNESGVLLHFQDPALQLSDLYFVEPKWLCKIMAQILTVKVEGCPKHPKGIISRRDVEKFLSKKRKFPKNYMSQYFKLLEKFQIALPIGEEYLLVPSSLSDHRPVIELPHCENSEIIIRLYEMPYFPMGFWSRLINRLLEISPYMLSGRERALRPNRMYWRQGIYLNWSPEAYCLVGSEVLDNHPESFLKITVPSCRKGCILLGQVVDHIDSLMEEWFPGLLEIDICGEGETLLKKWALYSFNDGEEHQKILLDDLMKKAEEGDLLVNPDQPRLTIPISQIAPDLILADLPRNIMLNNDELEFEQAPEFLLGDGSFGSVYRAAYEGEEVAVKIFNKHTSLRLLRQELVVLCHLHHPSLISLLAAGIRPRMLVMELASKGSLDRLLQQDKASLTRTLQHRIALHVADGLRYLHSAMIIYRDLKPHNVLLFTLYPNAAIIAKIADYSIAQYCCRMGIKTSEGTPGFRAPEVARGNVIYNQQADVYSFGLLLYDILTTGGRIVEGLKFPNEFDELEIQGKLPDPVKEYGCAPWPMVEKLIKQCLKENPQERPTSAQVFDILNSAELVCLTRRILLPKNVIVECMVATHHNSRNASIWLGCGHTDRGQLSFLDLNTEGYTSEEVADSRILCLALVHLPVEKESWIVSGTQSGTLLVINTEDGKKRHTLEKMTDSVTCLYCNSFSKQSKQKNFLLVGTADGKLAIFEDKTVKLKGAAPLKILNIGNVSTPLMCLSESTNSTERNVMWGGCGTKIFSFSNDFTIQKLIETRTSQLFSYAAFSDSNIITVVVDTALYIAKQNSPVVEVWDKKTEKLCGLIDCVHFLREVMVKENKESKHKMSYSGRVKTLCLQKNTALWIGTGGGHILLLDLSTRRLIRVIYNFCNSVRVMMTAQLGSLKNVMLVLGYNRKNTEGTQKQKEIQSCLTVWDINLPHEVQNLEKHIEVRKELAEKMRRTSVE
On to `Cc1nn(C(C)(C)C#N)cc1Nc1ncc(C(F)(F)F)c([C@@H]2C[C@H]2F)n1` (single isomer, unassigned) [Compound A-12, 2-(4-((4-(2-fluorocyclopropyl)-5-(trifluoromethyl)pyrimidin-2-yl)amino)-3-methyl-1H-pyrazol-1-yl)-2-methylpropanenitrile], for which the IC50 (commonly the concentration that gives 50% inhibition) is greater than 0.06 µM.

Molecule `Cc1nn(C(C)(C)C#N)cc1Nc1ncc(C(F)(F)F)c([C@H]2C[C@@H]2F)n1` (single isomer, unassigned) [Compound A-13, 2-(4-((4-(2-fluorocyclopropyl)-5-(trifluoromethyl)pyrimidin-2-yl)amino)-3-methyl-1H-pyrazol-1-yl)-2-methylpropanenitrile] showed an IC50 greater than 0.06 µM.

In turn, `CC1(O)CCCC1n1ncc(Nc2ncc(C(F)(F)F)c(C3CC3)n2)c1Cl` (single isomer, unassigned) [Compound A-49, 2-(5-chloro-4-((4-cyclopropyl-5-(trifluoromethyl)pyrimidin-2-yl)amino)-1H-pyrazol-1-yl)-1-methylcyclopentanol] registered an IC50 greater than 0.06 µM.

Consider `CC1(O)CCCC1n1ncc(Nc2ncc(C(F)(F)F)c(C3CC3)n2)c1Cl` (single isomer, unassigned) [Compound A-50, 2-(5-chloro-4-((4-cyclopropyl-5-(trifluoromethyl)pyrimidin-2-yl)amino)-1H-pyrazol-1-yl)-1-methylcyclopentanol], for which the IC50 was less than 0.03 µM.

Molecule `CCN1CC(n2ncc(Nc3ncc(C(F)(F)F)c(C4CC4)n3)c2C)CCC1=O` (single isomer, unassigned) [Compound A-59] came in with an IC50 of less than 0.03 µM.

`CCN1CC(n2ncc(Nc3ncc(C(F)(F)F)c(C4CC4)n3)c2C)CCC1=O` (single isomer, unassigned) [Compound A-60] returned an IC50 of less than 0.03 µM.

The molecule `CCN1CC(n2cc(Nc3ncc(C(F)(F)F)c(C4CC4)n3)c(C)n2)CCC1=O` (single isomer, unassigned) [Compound A-61] had an IC50 of 0.03 to 0.06 µM.

As for `CCN1CC(n2cc(Nc3ncc(C(F)(F)F)c(C4CC4)n3)c(C)n2)CCC1=O` (single isomer, unassigned) [Compound A-62], the IC50 is greater than 0.06 µM.

In turn, `FC(F)(F)c1cnc(Nc2cnn([C@H]3CN(C4COC4)CCC3(F)F)c2Cl)nc1C1CC1` (single isomer, unassigned) [Compound A-64, N-(5-chloro-1-(4,4-difluoro-1-(oxetan-3-yl)piperidin-3-yl)-1H-pyrazol-4-yl)-4-cyclopropyl-5-(trifluoromethyl)pyrimidin-2-amine] registered an IC50 of 0.03 to 0.06 µM.

As to `FC(F)(F)c1cnc(Nc2cnn([C@@H]3CN(C4COC4)CCC3(F)F)c2Cl)nc1C1CC1` (single isomer, unassigned) [Compound A-65, N-(5-chloro-1-(4,4-difluoro-1-(oxetan-3-yl)piperidin-3-yl)-1H-pyrazol-4-yl)-4-cyclopropyl-5-(trifluoromethyl)pyrimidin-2-amine], the IC50 is less than 0.03 µM.

Take `Cc1nn([C@@H]2CCn3ccnc32)cc1Nc1ncc(C(F)(F)F)c(C2CC2)n1` (single isomer, unassigned) [Compound A-78]: the IC50 is greater than 0.06 µM.

In the case of `Cc1nn([C@H]2CCn3ccnc32)cc1Nc1ncc(C(F)(F)F)c(C2CC2)n1` (single isomer, unassigned) [Compound A-79], the IC50 is less than 0.03 µM.

`Cc1nn([C@@H]2CCn3cnnc32)cc1Nc1ncc(C(F)(F)F)c(C2CC2)n1` (single isomer, unassigned) [Compound A-82] returned an IC50 of less than 0.03 µM.

In the case of `Cc1nn([C@H]2CCn3cnnc32)cc1Nc1ncc(C(F)(F)F)c(C2CC2)n1` (single isomer, unassigned) [Compound A-83], the IC50 was less than 0.03 µM.

`Cc1nn(C(C)(C)C#N)cc1Nc1ncc(C(F)(F)F)c(C2CC2)n1` [Compound A-1, 2-[4-[(5-trifluoromethyl-4-cyclopropyl-pyrimidin-2-yl)amino]-3-methyl-pyrazol-1-yl]-2-methyl-propanenitrile] showed an IC50 of less than 0.03 µM.

The molecule `Cc1nn(C(C)(C)C#N)cc1Nc1ncc(Cl)c(C2CC2)n1` [Compound A-2, 2-[4-[(5-chloro-4-cyclopropyl-pyrimidin-2-yl)amino]-3-methyl-pyrazol-1-yl]-2-methyl-propanenitrile] showed an IC50 of less than 0.03 µM.

`Cc1nn(C(C)(C)C#N)cc1Nc1ncc(C#N)c(C2CC2)n1` [Compound A-3, 2-[[1-(1-cyano-1-methyl-ethyl)-3-methyl-pyrazol-4-yl]amino]-4-cyclopropyl-pyrimidine-5-carbonitrile]: the IC50 was greater than 0.06 µM.

With `Cc1nn(C(C)(C)C#N)cc1Nc1ncc(C(F)(F)F)c(C2=CCCC2)n1` [Compound A-4, 2-[4-[[4-(cyclopenten-1-yl)-5-(trifluoromethyl)pyrimidin-2-yl]amino]-3-methyl-pyrazol-1-yl]-2-methyl-propanenitrile], the IC50 was in the range of 0.03 to 0.06 µM.

For the molecule `Cn1nc(C(C)(C)C#N)cc1Nc1ncc(C(F)(F)F)c(C2CC2)n1` [Compound A-5, 2-(5-((4-cyclopropyl-5-(trifluoromethyl)pyrimidin-2-yl)amino)-1-methyl-1H-pyrazol-3-yl)-2-methylpropanenitrile], the IC50 lay in the range of 0.03 to 0.06 µM.

`Cc1nn(S(C)(=O)=O)cc1Nc1ncc(C(F)(F)F)c(C2CC2)n1` [Compound A-7, 4-cyclopropyl-N-(3-methyl-1-methylsulfonyl-pyrazol-4-yl)-5-(trifluoromethyl)pyrimidin-2-amine] registered an IC50 of less than 0.03 µM.

The molecule `Cc1nn(C(C)(C)c2ncn(C)n2)cc1Nc1ncc(C(F)(F)F)c(C2CC2)n1` [Compound A-8, 4-cyclopropyl-N-(3-methyl-1-(2-(1-methyl-1H-1,2,4-triazol-3-yl)propan-2-yl)-1H-pyrazol-4-yl)-5-(trifluoromethyl)pyrimidin-2-amine] showed an IC50 of less than 0.03 µM.

Consider `Cc1nn(C(C)(C)C#N)cc1Nc1ncc(C(F)(F)F)c(-c2cnn(C)c2)n1` [Compound A-9, 2-methyl-2-(3-methyl-4-((4-(1-methyl-1H-pyrazol-4-yl)-5-(trifluoromethyl)pyrimidin-2-yl)amino)-1H-pyrazol-1-yl)propanenitrile], for which the IC50 lay within 0.03 to 0.06 µM.

The molecule `Cc1nn(C(C)(C)C#N)cc1Nc1ncc(C(F)(F)F)c(C2CCCC2)n1` [Compound A-10, 2-[4-[[4-cyclopentyl-5-(trifluoromethyl)pyrimidin-2-yl]amino]-3-methyl-pyrazol-1-yl]-2-methyl-propanenitrile] had an IC50 greater than 0.06 µM.

Molecule `Cc1nn(C(C)(C)C#N)cc1Nc1ncc(C(F)(F)F)c(C2CCC2)n1` [Compound A-11, 2-[4-[[4-cyclobutyl-5-(trifluoromethyl)pyrimidin-2-yl]amino]-3-methyl-pyrazol-1-yl]-2-methyl-propanenitrile] showed an IC50 of 0.03 to 0.06 µM.

As for `Cc1nn(C2COC2)cc1Nc1ncc(C(F)(F)F)c(C2CC2)n1` [Compound A-14, 4-cyclopropyl-N-[3-methyl-1-(oxetan-3-yl)pyrazol-4-yl]-5-(trifluoromethyl)pyrimidin-2-amine], the IC50 was less than 0.03 µM.

Still in this experiment, the particulars now being: Table D-4; 5 nM LRRK2, 134 μM ATP, 60 minute reaction, 23° C.
`CCNc1nc(Nc2cnn(C3CCn4ccnc43)c2C)ncc1C(F)(F)F` (racemic) [Compound D-22, N2-(1-(6,7-dihydro-5H-pyrrolo[1,2-a]imidazol-7-yl)-5-methyl-1H-pyrazol-4-yl)-N4-ethyl-5-(trifluoromethyl)pyrimidine-2,4-diamine] returned an IC50 of less than 0.03 µM.

In the case of `CNc1nc(Nc2cn(C3CCn4ccnc43)nc2C)ncc1C(F)(F)F` (single isomer, unassigned) [Compound D-3, N2-[1-[6,7-dihydro-5H-pyrrolo[1,2-a]imidazol-7-yl]-3-methyl-1H-pyrazol-4-yl]-N4-methyl-5-(trifluoromethyl)pyrimidine-2,4-diamine], the IC50 was greater than 0.06 µM.

Molecule `CNc1nc(Nc2cn(C3CCn4ccnc43)nc2C)ncc1C(F)(F)F` (single isomer, unassigned) [Compound D-4, N2-[1-[6,7-dihydro-5H-pyrrolo[1,2-a]imidazol-7-yl]-3-methyl-1H-pyrazol-4-yl]-N4-methyl-5-(trifluoromethyl)pyrimidine-2,4-diamine] came in with an IC50 of less than 0.03 µM.

`CCNc1nc(Nc2cn(C3CCn4ccnc43)nc2C)ncc1C(F)(F)F` (single isomer, unassigned) [Compound D-23, N2-(1-(6,7-dihydro-5H-pyrrolo[1,2-a]imidazol-7-yl)-3-methyl-1H-pyrazol-4-yl)-N4-ethyl-5-(trifluoromethyl)pyrimidine-2,4-diamine] gave an IC50 greater than 0.06 µM.

For the molecule `CCNc1nc(Nc2cn(C3CCn4ccnc43)nc2C)ncc1C(F)(F)F` (single isomer, unassigned) [Compound D-24, N2-(1-(6,7-dihydro-5H-pyrrolo[1,2-a]imidazol-7-yl)-3-methyl-1H-pyrazol-4-yl)-N4-ethyl-5-(trifluoromethyl)pyrimidine-2,4-diamine], the IC50 was less than 0.03 µM.

The values above are taken from US11214565B2, “Compound, compositions, and methods” (Denali Therapeutics Inc., priority 2015, dated 2022).
